Results: patent US6376670B1, “Quinoline-indole antimicrobial agents, uses and compositions related thereto” (Sepracor Inc., priority 1997, dated 2002)

Experiments:
Assay in all cases: Determination of MIC values (BHI broth, 96 well microtiter plate)
Format in all cases: cell-based
Streptococcus pneumoniae = details: S. pneu, BHI broth, overnight 37° C.; for MIC: Streptococcus pneumoniae, read-out: MIC S. pneu
Outline: (§1)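 Organisms are grown in BHI at 37° C (about 7% CO2) to a 0.5 McFarland standard, then inoculated at 10^5 to 10^6 cells/mL into BHI holding twofold compound dilutions (final 25 down to 0.39 µg/mL, DMSO-diluted). After overnight incubation, MIC is the lowest concentration lacking growth.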

[1] = tested on: methicillin-resistant Staphylococcus aureus (MRSA); details: MRSA, BHI broth, overnight 37° C.; for MIC: Staphylococcus aureus, read-out: MIC MRSA
Outline: as §1

[2] = tested on: vancomycin-resistant Enterococcus spp. (VRE); details: VREF, BHI broth, overnight 37° C.; for MIC: Enterococcus, VRE, read-out: MIC VREF
Outline: as §1

Structure (SMILES)	MIC (Streptococcus pneumoniae)	MIC [1]	MIC [2]	MIC S. pneu (Streptococcus pneumoniae)	MIC MRSA [1]	MIC VREF [2]
NCc1ccc(CNC(=O)c2cc(-c3c[nH]c4ccc(Br)cc34)nc3cc(Cl)c(C#CCN4CCc5ccccc5C4)cc23)cc1 [Example 281]	> 25 µg/mL	< 25 µg/mL	> 25 µg/mL			
NCc1ccc(CNC(=O)c2cc(-c3c[nH]c4ccc(Br)cc34)nc3cc(Cl)c(C#CCN4CC=CCC4)cc23)cc1 [Example 282]	< 7 µg/mL	< 7 µg/mL	< 7 µg/mL			
NCc1ccc(CNC(=O)c2cc(-c3c[nH]c4ccc(Br)cc34)nc3ccccc23)cc1 [Example 283]	< 7 µg/mL	< 7 µg/mL	< 7 µg/mL			
NCCNC(=O)c1cc(-c2c[nH]c3ccc(Br)cc23)nc2ccc(Br)cc12 [Example 285]	< 7 µg/mL	< 7 µg/mL	< 7 µg/mL			
Clc1ccc2nc(-c3c[nH]c4ccc(Cl)cc34)ccc2c1 [Example 287]	< 7 µg/mL	< 7 µg/mL	> 25 µg/mL			
Fc1ccc2c(-c3ccc4cc(Cl)ccc4n3)c[nH]c2c1 [Example 288]	< 7 µg/mL	< 7 µg/mL	< 7 µg/mL			
Clc1ccc2nc(-c3c[nH]c4ccc(OCc5ccccc5)cc34)ccc2c1 [Example 289]	< 7 µg/mL	< 7 µg/mL	> 25 µg/mL			
COc1ccc2[nH]cc(-c3ccc4cc(Cl)ccc4n3)c2c1 [Example 290]	> 25 µg/mL	> 25 µg/mL	> 25 µg/mL			
Cc1cccc2c(-c3ccc4cc(Cl)ccc4n3)c[nH]c12 [Example 291]	> 25 µg/mL	> 25 µg/mL	> 25 µg/mL			
N#Cc1ccc2[nH]cc(-c3ccc4cc(Cl)ccc4n3)c2c1 [Example 292]				> 25 µg/mL	> 25 µg/mL	>25 µg/mL
NCCNC(=O)c1cc(-c2c[nH]c3ccc(Br)cc23)nc2cc(Cl)c(I)cc12 [Example 294]	< 7 µg/mL	< 7 µg/mL	< 7 µg/mL			
NCCNC(=O)c1cc(-c2c[nH]c3ccc(Br)cc23)nc2cc(Cl)cc(Cl)c12 [Example 295]	< 7 µg/mL	< 7 µg/mL	< 7 µg/mL			
O=C(O)c1cc(-c2c[nH]c3ccc(Br)cc23)nc2cc(F)cc(Cl)c12 [Example 297]	< 25 µg/mL	< 25 µg/mL	< 25 µg/mL			
NCC1CCCC(CNC(=O)c2cc(-c3c[nH]c4ccc(Br)cc34)nc3cc(F)ccc23)C1 (stereo not drawn) [Example 298]	< 7 µg/mL				< 7 µg/mL	<7 µg/mL
NCc1ccc(CNC(=O)c2cc(-c3c[nH]c4ccc(Br)cc34)nc3cc(C#CCNCCc4ccc(Cl)cc4)ccc23)cc1 [Example 300]	< 25 µg/mL	< 7 µg/mL	< 7 µg/mL			
NCc1ccc(CNC(=O)c2cc(-c3c[nH]c4ccc(Br)cc34)nc3c(C#CCNCCc4ccc(Cl)cc4)cccc23)cc1 [Example 301]	< 25 µg/mL	< 7 µg/mL	< 25 µg/mL			
Brc1ccc2[nH]cc(-c3nc4ccc(I)cc4c4c3CCO4)c2c1 [Example 303]	< 7 µg/mL	< 7 µg/mL	> 25 µg/mL			
NCc1ccc(CNC(=O)c2cc(-c3c[nH]c4ccc(Br)cc34)nc3cc(C#CCN4CC=CCC4)ccc23)cc1 [Example 304]	< 7 µg/mL	< 7 µg/mL	< 7 µg/mL			
NCc1ccc(CNC(=O)c2cc(-c3c[nH]c4ccc(Br)cc34)nc3c(C#CCN4CC=CCC4)cccc23)cc1 [Example 305]	< 7 µg/mL	< 7 µg/mL	< 7 µg/mL			

Structure (SMILES)	MIC (Streptococcus pneumoniae)	MIC [1]	MIC [2]	MIC S. pneu (Streptococcus pneumoniae)	MIC MRSA [1]	MIC VREF [2]
NCc1ccc(CNC(=O)c2cc(-c3c[nH]c4ccc(Br)cc34)c3ccccc3n2)cc1 [Example 306]	< 7 µg/mL	< 7 µg/mL	< 7 µg/mL			
COC(=O)c1cc(-c2cn(C)c3ccc(Br)cc23)nc2cc(F)ccc12 [Example 309]	> 25 µg/mL	> 25 µg/mL	> 25 µg/mL			
Cn1cc(-c2cc(C(=O)O)c3ccc(F)cc3n2)c2cc(Br)ccc21 [Example 310]	< 25 µg/mL	< 25 µg/mL	> 25 µg/mL			
NCc1cccc(CNC(=O)c2cc(-c3cc4cc(Cl)ccc4[nH]3)nc3cc(I)ccc23)c1 [Example 311]	> 25 µg/mL	> 25 µg/mL	> 25 µg/mL			
NCCNC(=O)c1cc(-c2c[nH]c3ccc(Cl)cc23)nc2cc(Br)ccc12 [Example 312]	< 7 µg/mL	< 7 µg/mL	< 7 µg/mL			
NCCNC(=O)c1cc(-c2c[nH]c3ccc(Cl)cc23)nc2ccc(Br)cc12 [Example 313]	< 7 µg/mL	< 7 µg/mL	< 7 µg/mL			
NCCNC(=O)c1cc(-c2c[nH]c3ccc(Br)cc23)nc2c(Cl)cc(I)cc12 [Example 314]	< 7 µg/mL	< 7 µg/mL	< 7 µg/mL			
NCCNC(=O)c1cc(-c2c[nH]c3ccc(Br)cc23)nc2c(Br)cccc12 [Example 315]	< 7 µg/mL	< 7 µg/mL	< 7 µg/mL			
NCCNC(=O)c1cc(-c2c[nH]c3ccc(Br)cc23)nc2c(Cl)cccc12 [Example 318]	< 7 µg/mL	< 7 µg/mL	< 7 µg/mL			
NCCNC(=O)c1cc(-c2c[nH]c3ccc(Br)cc23)nc2c(F)cccc12 [Example 319]	< 7 µg/mL	< 7 µg/mL	< 25 µg/mL			
NCCNC(=O)c1cc(-c2c[nH]c3ccc(Br)cc23)nc2cc(F)ccc12 [Example 321]	< 7 µg/mL	< 7 µg/mL	< 7 µg/mL			
NCCNC(=O)c1cc(-c2c[nH]c3ccc(Cl)cc23)nc2c(Br)cccc12 [Example 322]	< 7 µg/mL	< 7 µg/mL	< 7 µg/mL			
Cn1cc(-c2cc(C(=O)NCCN)c3ccc(F)cc3n2)c2cc(Br)ccc21 [Example 325]	< 7 µg/mL	< 7 µg/mL	< 7 µg/mL			
Cn1cc(-c2cc(C(=O)NCC3CCC(CN)CC3)c3ccc(F)cc3n2)c2cc(Br)ccc21 (stereo not drawn) [Example 326]	< 7 µg/mL	< 7 µg/mL	< 7 µg/mL			
Cn1cc(-c2cc(C(=O)NCc3cccc(CN)c3)c3ccc(F)cc3n2)c2cc(Br)ccc21 [Example 327]	< 7 µg/mL	< 25 µg/mL	> 25 µg/mL			
Cn1cc(-c2cc(C(=O)NCc3ccc(CN)cc3)c3ccc(I)cc3n2)c2cc(Br)ccc21 [Example 328]	< 7 µg/mL	> 25 µg/mL	> 25 µg/mL			
Cn1cc(-c2cc(C(=O)NCc3cccc(CN)c3)c3ccc(I)cc3n2)c2cc(Br)ccc21 [Example 330]	< 7 µg/mL	< 7 µg/mL	< 7 µg/mL			
Cn1cc(-c2cc(C(=O)NCC3CCC(CN)CC3)c3ccc(I)cc3n2)c2cc(Br)ccc21 (stereo not drawn) [Example 331]	< 7 µg/mL	< 7 µg/mL	< 7 µg/mL			
Cn1cc(-c2cc(C(=O)NCC3CCCC(CN)C3)c3ccc(I)cc3n2)c2cc(Br)ccc21 (stereo not drawn) [Example 332]	< 7 µg/mL	< 7 µg/mL	< 7 µg/mL			

Structure (SMILES)	MIC (Streptococcus pneumoniae)	MIC [1]	MIC [2]	MIC S. pneu (Streptococcus pneumoniae)	MIC MRSA [1]	MIC VREF [2]
Cn1cc(-c2cc(C(=O)NC3CCC(N)CC3)c3ccc(I)cc3n2)c2cc(Br)ccc21 (stereo not drawn) [Example 333]	< 7 µg/mL	< 7 µg/mL	< 7 µg/mL			
NCc1cccc(CNC(=O)c2cc(-c3c[nH]c4ccc(Br)cc34)nc3cc(Br)ccc23)n1 [Example 334]	< 7 µg/mL	< 7 µg/mL	< 7 µg/mL			
OCc1cc(-c2c[nH]c3ccc(Br)cc23)nc2cc(Br)ccc12 [Example 335]	< 7 µg/mL	< 7 µg/mL	< 7 µg/mL			
CCOC(=O)n1cc(-c2cc(C(=O)NCc3ccc(CN)cc3)c3cc(C#CCN4CCCCC4)ccc3n2)c2cc(Br)ccc21 [Example 337]	> 25 µg/mL	> 25 µg/mL	> 25 µg/mL			
Fc1cccc2[nH]cc(-c3cc(Cl)c4ccccc4n3)c12 [Example 338]	< 7 µg/mL	< 25 µg/mL	> 25 µg/mL			
Fc1ccc2[nH]cc(-c3cc(Cl)c4ccccc4n3)c2c1 [Example 339]	< 7 µg/mL	< 7 µg/mL	< 7 µg/mL			
Fc1ccc2c(-c3cc(Cl)c4ccccc4n3)c[nH]c2c1 [Example 340]	< 7 µg/mL	< 7 µg/mL	< 7 µg/mL			
Clc1cc(-c2c[nH]c3cccc(Cl)c23)nc2ccccc12 [Example 341]	< 7 µg/mL	< 7 µg/mL	< 7 µg/mL			
Clc1ccc2c(-c3cc(Cl)c4ccccc4n3)c[nH]c2c1 [Example 343]	< 7 µg/mL	< 7 µg/mL	> 25 µg/mL			
Clc1cc(-c2c[nH]c3c(Cl)cccc23)nc2ccccc12 [Example 344]	< 7 µg/mL	< 7 µg/mL	> 25 µg/mL			
Clc1cc(-c2c[nH]c3ccc(Br)cc23)nc2ccccc12 [Example 345]	< 7 µg/mL	< 7 µg/mL	> 25 µg/mL			
Clc1cc(-c2c[nH]c3c(Br)cccc23)nc2ccccc12 [Example 346]	< 25 µg/mL	< 25 µg/mL	> 25 µg/mL			
Oc1ccc2[nH]cc(-c3cc(Cl)c4ccccc4n3)c2c1 [Example 347]	< 25 µg/mL	< 25 µg/mL	> 25 µg/mL			
COc1ccc2[nH]cc(-c3cc(Cl)c4ccccc4n3)c2c1 [Example 348]	< 7 µg/mL	< 7 µg/mL	> 25 µg/mL			
O=[N+]([O-])c1ccc2[nH]cc(-c3cc(Cl)c4ccccc4n3)c2c1 [Example 349]	> 25 µg/mL	> 25 µg/mL	> 25 µg/mL			
N#Cc1ccc2[nH]cc(-c3cc(Cl)c4ccccc4n3)c2c1 [Example 350]	> 25 µg/mL	> 25 µg/mL	> 25 µg/mL			
CC(=O)Oc1cccc2[nH]cc(-c3cc(Cl)c4ccccc4n3)c12 [Example 351]	< 7 µg/mL	< 7 µg/mL	> 25 µg/mL			
Cc1[nH]c2ccccc2c1-c1cc(Cl)c2ccccc2n1 [Example 352]	< 7 µg/mL	< 7 µg/mL	> 25 µg/mL			
